According to patent publication US20250074911A1, “MACROCYCLIC BTK INHIBITORS” (Crossfire Oncology Holding B.V., priority 2021, published 2025):
Values joined by “and” are separate entries in the source; they are usually repeats but may differ in a detail not shown here. Equal values may be shown once.

What was measured:
BTK C481S = BTK C481S (Homo sapiens (Human), UniProt Q06187, C481S); test: Binding kinetics measurements (Surface Plasmon Resonance) on BTK C481S; settings: for Kd: binding affinity by Surface Plasmon Resonance (SPR); for Tau (h) BTK C418S (Act): target residence time for BTK C481S, SPR; for target residence time on BTK C481 mutants: result in words
BTK C481S, sequence (Q06187 whole entry C481S): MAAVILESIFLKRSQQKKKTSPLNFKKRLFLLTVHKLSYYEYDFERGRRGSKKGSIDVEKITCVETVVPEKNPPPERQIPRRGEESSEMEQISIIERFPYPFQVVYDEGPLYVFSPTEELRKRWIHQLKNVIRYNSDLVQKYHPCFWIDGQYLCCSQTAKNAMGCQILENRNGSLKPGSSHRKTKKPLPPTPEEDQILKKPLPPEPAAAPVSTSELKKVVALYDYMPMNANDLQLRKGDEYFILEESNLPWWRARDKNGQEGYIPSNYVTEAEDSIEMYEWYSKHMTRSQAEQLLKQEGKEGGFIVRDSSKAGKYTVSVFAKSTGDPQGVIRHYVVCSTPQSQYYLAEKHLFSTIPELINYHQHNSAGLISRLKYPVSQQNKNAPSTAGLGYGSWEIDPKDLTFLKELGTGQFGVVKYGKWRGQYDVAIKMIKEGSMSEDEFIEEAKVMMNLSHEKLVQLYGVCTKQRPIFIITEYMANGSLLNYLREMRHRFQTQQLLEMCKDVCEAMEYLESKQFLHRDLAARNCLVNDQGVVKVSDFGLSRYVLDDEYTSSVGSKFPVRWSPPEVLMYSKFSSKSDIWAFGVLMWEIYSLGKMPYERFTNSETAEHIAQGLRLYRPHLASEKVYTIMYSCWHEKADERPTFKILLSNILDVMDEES
Protocol: (§1) Binding kinetics measurements on wt-BTK, BTK […], BTK […], BTK […] and BTK […] (Surface Plasmon Resonance) Streptavidin-coated chips (Cat. No. BR100531), disposables and maintenance kits for Biacore were purchased from Cytiva (Eindhoven, The Netherlands). […] Remaining streptavidin was blocked with biocytin. Immobilization was performed at 4° C. Subsequent assay steps were conducted at 22° C. After changing buffer to Biacore buffer with 1% (v/v) dimethylsulfoxide (DMSO), a pre-run was performed for a period of at least 30 min at a flow rate of 30 μl/min to obtain a stable surface. The kinetic constants of the compounds were determined with single cycle kinetics with five consecutive injections with an increasing compound concentration with ranges of 3.16-316 nM. […] To circumvent problems of mass transport limitation, a flow rate of 30 μl/min was used. A blank run with the same conditions was performed before the compound was injected. The SPR sensorgrams were analyzed with Biacore Evaluation Software by using a method of double referencing. First the reference channel was subtracted from the channel containing immobilized protein. Subsequently, the reference curve obtained with buffer injections was subtracted. […] Compounds that bound according to an induced fit model were fitted with a two-state reaction model. The kinetic constants (ka, […], KD) of duplicates were geometrically averaged. […] Target residence for an induced fit model was calculated as described (Tummino and Copeland, 2008).

wt-BTK = wt-BTK (Homo sapiens (Human), UniProt Q06187); test: Binding kinetics measurements (Surface Plasmon Resonance) on wt-BTK; settings: for Kd: binding affinity by Surface Plasmon Resonance (SPR); for Tau (h) wt-BTK (Act): target residence time, SPR; for target residence time on wild-type-BTK: result in words
wt-BTK, sequence (Q06187 whole entry): as the sequence (Q06187 whole entry C481S) above, with S481C counted along it
How it was run: (§2)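 Using streptavidin-captured kinase, binding was followed by SPR in 1% DMSO buffer at 22° C and 30 μl/min. Five consecutive compound injections spanned 3.16-316 nM, preceded by a blank run; data were double referenced before kinetic fitting.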

[1] = target: full-length BTK C481S enzyme (Homo sapiens (Human), UniProt Q06187, C481S); test: Biochemical kinase assay BTK C481S (IMAP)
full-length BTK C481S enzyme, sequence (Q06187 whole entry C481S): as the sequence (Q06187 whole entry C481S) above
How it was run: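 IC50 values come from IMAP fluorescence polarization after quenching with progressive binding solution. The reaction ran 2 h at room temperature in the dark with 1.2 nM full-length C481S enzyme, 7 μM ATP and 50 nM fluorescein-labelled MBP-derived peptide, following a 1 h dark pre-incubation of compound with enzyme.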

BTK T316A = BTK T316A (Homo sapiens (Human), UniProt Q06187, T316A); test: Binding kinetics measurements (Surface Plasmon Resonance) on BTK T316A; settings: for Kd: binding affinity by Surface Plasmon Resonance (SPR); for Tau (h) BTK T316A (Act): target residence time, SPR; for target residence time on BTK T316 mutants: result in words
BTK T316A, sequence (Q06187 whole entry T316A): as the sequence (Q06187 whole entry C481S) above, with T316A, S481C counted along it
Protocol: as §1

[2] = tested on: wt-TMD8 diffuse large B-cell lymphoma cells; test: Cell proliferation assay wt-TMD8 (ATPlite, 120 hours); type: cell-based; settings: B-cell; wt-TMD8 cells, 120 hours, ATPlite; read-out: IC50 wt-TMD8
How it was run: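 Readout is percentage growth from ATPlite 1Step luminescence after 5 days (120 h) compound treatment of wt-TMD8 lymphoma cells (1600/well, RPMI-1640 + 10% FBS). Time-zero signal separates growth inhibition from cell kill; 0.3% DMSO wells without compound define maximal growth.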

BTK T474S = BTK T474S (Homo sapiens (Human), UniProt Q06187, T474S); test: Binding kinetics measurements (Surface Plasmon Resonance) on BTK T474S; settings: for residence time: SPR binding kinetics, BTK T474S, read-out: Tau (h) BTK T474S (Act), target residence time (converted); for Kd: binding affinity by Surface Plasmon Resonance (SPR); for target residence time on BTK T474 mutants (T474S): result in words
BTK T474S, sequence (Q06187 whole entry T474S): as the sequence (Q06187 whole entry C481S) above, with T474S, S481C counted along it
Protocol: as §1

BTK T474I = BTK T474I (Homo sapiens (Human), UniProt Q06187, T474I); test: Binding kinetics measurements (Surface Plasmon Resonance) on BTK T474I; settings: for Kd: binding affinity by Surface Plasmon Resonance (SPR); for Tau (h) BTK T474I (Act): target residence time, SPR; for target residence time on BTK T474 mutants (T474I): result in words
BTK T474I, sequence (Q06187 whole entry T474I): as the sequence (Q06187 whole entry C481S) above, with T474I, S481C counted along it
How it was run: as §2

[3] = tested on: wt-REC-1 mantle cell lymphoma cells; test: Cell proliferation assay wt-REC-1 (ATPlite, 72 hours); type: cell-based; settings: 72 h; read-out: IC50 wt-REC-1
How it was run: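 Luminescent viability read over 72 h, start-of-incubation signal recorded separately to separate growth from cell death. Percentage growth referenced to compound-free 0.3% DMSO wells; IC50 from 4-parameter logistic fit.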

[4] = target: full-length wt-BTK enzyme (Homo sapiens (Human), UniProt Q06187); test: Biochemical kinase assay wt-BTK (IMAP)
full-length wt-BTK enzyme, sequence (Q06187 whole entry): as the sequence (Q06187 whole entry C481S) above, with S481C counted along it
How it was run: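 Compound and enzyme (final 1.2 nM) were pre-incubated for 1 h at RT, after which the reaction was started with 4 μM ATP plus 50 nM fluorescein-MBP substrate peptide. After 2 h in the dark, the IMAP progressive binding reagent stopped the reaction, and phosphorylation was read by fluorescence polarization.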

REC-1 T474I cell lines = test: Cell proliferation assay REC-1 BTK T474I knock-in cells (ATPlite, 72 hours); type: cell-based; settings: Homo sapiens, Rec1; 72 hours; read-out: IC50 REC-1 T474I
How it was run: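 REC-1 cells carrying CRISPR knock-in mutant BTK, single-cell cloned and sequence-confirmed, were exposed to compound for 72 h and read by ATPlite luminescence. Percentage growth was calculated against the signal at the start of incubation and against untreated 0.3% DMSO wells as maximum growth.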

Compound | Kd (BTK C481S) | Tau (h) BTK C418S (Act) (BTK C481S) | Kd (wt-BTK) | Tau (h) wt-BTK (Act) (wt-BTK) | IC50 [1] | Kd (BTK T316A) | Tau (h) BTK T316A (Act) (BTK T316A) | IC50 [2] | residence time (BTK T474S) | Kd (BTK T474S) | Kd (BTK T474I) | IC50 [3] | IC50 [4] | Tau (h) BTK T474I (Act) (BTK T474I) | target residence time on BTK C481 mutants (BTK C481S) | target residence time on wild-type-BTK (wt-BTK) | target residence time on BTK T316 mutants (BTK T316A) | target residence time on BTK T474 mutants (T474S) (BTK T474S) | target residence time on BTK T474 mutants (T474I) (BTK T474I) | IC50 (REC-1 T474I cell lines)
C[C@@H]1CC(=O)N[C@@H]2CC[C@H](C2)n2nc(-c3ccc(C(=O)Nc4cc(C(F)(F)F)ccn4)cc3)c3c(N)ncc(c32)/C=C/CCN1 [Example 175] | < 5 nM | 4.68 h |  |  | < 5 nM |  | 3.51 h | < 100 nM | 1.14 h |  |  | < 100 nM | < 5 nM | 1.31 h |  |  |  |  |  | 100 to 500 nM
Nc1ncc2n3c(nc(-c4ccc(C(=O)Nc5cc(C(F)(F)F)ccn5)cc4)c13)C1CCC[C@H](C1)NC(=O)CCC/C=C\C2 [Example 133b] |  | 7.08 h |  | 4.39 h |  |  | 1.96 h | < 100 nM | 3.12 h |  |  | < 100 nM |  |  |  |  |  |  |  | 
C[C@@H]1CC(=O)N[C@@H]2CCC[C@H](C2)n2nc(-c3ccc(C(=O)Nc4cc(C(F)(F)F)ccn4)cc3)c3c(N)ncc(c32)/C=C/CCN1C [Example 40] |  |  | < 5 nM | 6.49 h | < 5 nM | < 5 nM | 2.16 h | < 100 nM | 8.38 h | < 3 nM | < 2 nM | < 100 nM | < 5 nM | 0.85 h |  |  |  |  |  | < 100 nM
Nc1ncc2c3c1c(-c1ccc(C(=O)Nc4cc(C(F)(F)F)ccn4)cc1)nn3[C@@H]1CCC[C@H](C1)NC(=O)CCCC[C@H](O)/C=C/2 [Example 11] |  |  | < 5 nM | 5.48 h | < 5 nM | < 5 nM | 6.42 h | < 100 nM | 4.3 h | < 3 nM | < 2 nM | < 100 nM | < 5 nM | 1.93 h |  |  |  |  |  | 100 to 500 nM
NC(=O)[C@H]1CCN(c2ncnc(N)c2F)C[C@@H]1N1CCC[C@@H](Nc2cc(Cl)cc(C(F)(F)F)c2)C1=O [vecabrutinib, reference compound] |  | 0.12 h |  | 0.18 h |  |  | 0.05 h |  | 0.07 h |  |  |  |  | 0.01 h | short target residence times | short target residence times | short target residence times | short target residence times | short target residence times | 
C[C@H]1CN(C2COC2)CCN1c1ccc(Nc2cc(-c3ccnc(N4CCn5c(cc6c5CC(C)(C)C6)C4=O)c3CO)cn(C)c2=O)nc1 [fenebrutinib, reference compound] |  | 0.08 h |  | 0.29 h |  |  | 0.03 h |  | 0.93 h |  |  |  |  | 0.19 h | short target residence times | short target residence times | short target residence times | short target residence times | short target residence times | 
Nc1ncc2n3c(nc(-c4ccc(C(=O)Nc5cc(C(F)(F)F)ccn5)cc4)c13)[C@@H]1CCC[C@H](C1)NC(=O)CCC/C=C/2 [Example 132] | < 5 nM | 3.96 h | < 5 nM | 2.75 h | < 5 nM | < 5 nM | 1.58 h |  | 3.04 h | < 3 nM | < 2 nM | 100 to 1000 nM | < 5 nM |  |  |  |  |  |  | 500 to 10000 nM

Continued, in another order:

Kd (BTK C481S) | Tau (h) BTK C418S (Act) (BTK C481S) | Kd (wt-BTK) | Tau (h) wt-BTK (Act) (wt-BTK) | IC50 [1] | Kd (BTK T316A) | Tau (h) BTK T316A (Act) (BTK T316A) | IC50 [2] | residence time (BTK T474S) | Kd (BTK T474S) | Kd (BTK T474I) | IC50 [3] | IC50 [4] | Tau (h) BTK T474I (Act) (BTK T474I) | target residence time on BTK C481 mutants (BTK C481S) | target residence time on wild-type-BTK (wt-BTK) | target residence time on BTK T316 mutants (BTK T316A) | target residence time on BTK T474 mutants (T474S) (BTK T474S) | target residence time on BTK T474 mutants (T474I) (BTK T474I) | Compound | IC50 (REC-1 T474I cell lines)
< 5 nM | 7.19 h | < 5 nM | 4.95 h | < 5 nM | < 5 nM | 1.85 h | < 100 nM | 2.48 h | < 3 nM | < 2 nM | < 100 nM | < 5 nM |  |  |  |  |  |  | C[C@@H]1CCn2nc(-c3ccc(C(=O)Nc4cc(C(F)(F)F)ccn4)cc3)c3c(N)ncc(c32)/C=C/CSCC(=O)N1 [Example 61] | 
< 5 nM | 3.83 h | < 5 nM | 2.86 h | < 5 nM | < 5 nM | 2.22 h | < 100 nM | 1.64 h | < 3 nM | < 2 nM | < 100 nM | < 5 nM |  |  |  |  |  |  | Nc1ncc2n3c(nc(-c4ccc(C(=O)Nc5cc(C(F)(F)F)ccn5)cc4)c13)[C@@H]1CCC[C@H](C1)NC(=O)CCCC/C=C/2 [Example 130] | 
< 5 nM | 6.25 h | < 5 nM | 5.09 h | < 5 nM | < 5 nM | 2.96 h |  | 3.89 h | < 3 nM | 10 to 50 nM and < 5 nM | 100 to 1000 nM | < 5 nM |  |  |  |  |  |  | Nc1ncc2c3c1c(-c1ccc(C(=O)Nc4cc(C(F)(F)F)ccn4)cc1)nn3[C@@H]1CCC[C@H](C1)C(=O)NCCCCCCC2 [Example 115] | 100 to 500 nM
< 5 nM | 5.98 h | < 5 nM | 4.35 h | < 5 nM | < 5 nM | 3.58 h |  | 4.46 h | < 3 nM | 10 to 50 nM and < 5 nM | 100 to 1000 nM | < 5 nM | 1.14 h |  |  |  |  |  | Nc1ncc2c3c1c(-c1ccc(C(=O)Nc4cc(C(F)(F)F)ccn4)cc1)nn3[C@@H]1CCC[C@H](C1)NC(=O)CCCC/C=C\C2 [Example 98b] | 
< 5 nM | 5.76 h | < 5 nM | 3.88 h |  | < 5 nM | 2.12 h | < 100 nM | 2.69 h | < 3 nM | 10 to 50 nM and < 5 nM | < 100 nM |  |  |  |  |  |  |  | CC1NC/C=C/c2cnc(N)c3c(-c4ccc(C(=O)Nc5cc(C(F)(F)F)ccn5)cc4)nn(c23)[C@@H]2CCC[C@H](C2)NC1=O (single isomer, unassigned) [Example 146] | 100 to 500 nM
< 5 nM |  | < 5 nM |  |  | < 5 nM |  |  |  | < 3 nM | < 2 nM |  |  |  |  |  |  |  |  | Nc1ncc2c3c1c(-c1ccc(C(=O)Nc4ccccn4)cc1)nn3[C@@H]1CCC[C@H](C1)NC(=O)CCCCC/C=C/2 [Example 24] | 
< 5 nM |  | < 5 nM |  | < 5 nM | < 5 nM |  |  |  | < 3 nM | < 2 nM |  | < 5 nM |  |  |  |  |  |  | Nc1ncc2n3c(nc(-c4ccc(C(=O)Nc5cc(C(F)(F)F)ccn5)cc4)c13)[C@@H]1CCC[C@H](C1)NC(=O)CCC/C=C\C2 [Example 133b] | 
